{
  "source": "patent US20040254344A1",
  "about": "“Amino acid conjugates providing for sustained systemic concentrations of gaba analogues” (priority 2001, published 2004)",
  "key": {"[1]": {"conditions": "rat; for Cmax PD (Cmax of prodrug in plasma): oral prodrug 25 mg-equivalents of gabapentin per kg; for Cmax of gabapentin in plasma: single oral dose 25 mg/kg gabapentin or 25 mg-equivalents of gabapentin per kg", "procedure": "The pharmacokinetics of the prodrugs prepared in Examples 1 and 3 were examined in rats. […] Animals were fasted overnight prior to dosing and until 4 hours post-dosing. Serial blood samples were obtained over 24 hours following dosing and blood was processed for plasma by centrifugation. Plasma samples were stored at −80° C. until analyzed.\nPlasma (50 μL) was precipitated by addition of […] of methanol and supernatant was injected directly onto the LC/MS/MS system. […] Following oral administration of gabapentin prodrugs, concentrations of prodrug and gabapentin in plasma were monitored over 24 hours."}, "[2]": {"assay": "Caco-2 homogenate S9 stability", "assay_type": "in vitro ADME", "conditions": "incubation with Caco-2 homogenate for 1 hour, 5 μM, 37° C.", "procedure": "Tissue homogenates and plasma samples were obtained from commercial sources (Pel-Freez Biologicals, Rogers, Ark., and GenTest Corporation, Woburn, Mass.). Stability of prodrugs toward the specific enzyme aminopeptidase was also evaluated by incubation with the purified enzyme. Experimental conditions used for the in vitro studies were as follows. Each preparation was incubated with test compound at 37° C. for one hour. Aliquots (50 μL) were removed at 0, 30, and 60 min and quenched with 0.1% trifluoroacetic acid in acetonitrile. Samples were then centrifuged and analyzed for the presence of prodrug and released gabapentin by LC/MS/MS as described below.\nConcentrations of prodrug or gabapentin in tissue extracts were determined by direct injection onto an API 2000 LC/MS/MS equipped with an Agilent 1100 binary pump and autosampler. Separation was achieved using a 3.5 μm Zorbax Ellipse XDB-C8 4.4×150 mm column heated to 45° C. during the analysis. The mobile phases were: 0.1% formic acid in water (A) and 0.1% formic acid in acetonitrile (B). The gradient condition was: 2% B for 0.5 min, increasing to 90% B in 2.0 min, maintained for 2.5 min and returning to 2% B for 2 min. A TurboIonSpray source was used on the API 2000. The analysis was performed in the positive ion mode and MRM transitions of 172.0/137.2 were used in the analysis of gabapentin (2). Ten microliters of the sample extracts were injected. Peaks were integrated using Analyst quantitation software. The method was linear for (2) over the concentration range 0.002 to 2.5 μg/mL respectively.\nCaco-2 Homogenate S9 Stability: Caco-2 cells were grown for 21 days prior to harvesting. Culture medium was removed and cell monolayers were rinsed and scraped off into ice-cold 10 mM sodium phosphate/0.15 M potassium chloride, pH 7.4. Cells were lysed by sonication at 4° C. using a probe sonicator. Lysed cells were then transferred into 1.5 mL centrifuge vials and centrifuged at 9000 g for 20 min at 4° C. The resulting supernatant (Caco-2 cell homogenate S9 fraction) was aliquoted into 0.5 mL vials and stored at −80° C. until used.\nFor stability studies, prodrug (5 μM) was incubated in Caco-2 homogenate S9 fraction (0.5 mg protein per mL) for 60 min at 37° C. Concentrations of intact prodrug and released drug were determined at zero time and 60 minutes using LC/MS/MS."}, "[3]": {"conditions": "rat, oral and i.v. dosing of prodrug"}, "[4]": {"conditions": "monkey, sodium salt, 10 mg-equivalents of gabapentin per kg"}, "[5]": {"conditions": "monkey; for increase in gabapentin exposure (as measured by AUC) on a 7.5-fold increase in dose / AUC G (AUC of gabapentin) / Cmax G (Cmax of gabapentin): oral; for increase in gabapentin exposure (as measured by AUC) on a 7.5-fold increase in dose: 10 to 75 mg-eq/kg", "description": "The prodrug was administered orally to four adult male monkeys (approximate body weight of 6.5 kg) via an oral nasogastric tubeas solutions in water or PEG 400. The dose was 10 or 75 mg-equivalents of gabapentin per kg body weight. Animals were fasted overnight before the study and for 4 hours post-dosing. Blood samples (1.0 mL) were obtained via femoral or cephalic venipuncture at intervals over 48 hours after oral dosing. Blood was processed immediately for plasma and plasma was frozen at −80° C. until analyzed. […] Oral bioavailability was determined by comparison of area under the gabapentin concentration versus time curve (AUC) following oral administration of prodrug or intravenous administration of an equimolar dose of gabapentin hydrochloride."}, "[6]": {"system": "PEPT2", "conditions": "tested at 1 mM on oocytes expressing PEPT2; normalised to 1 mM glycyl-sarcosine", "procedure": "(§1) Rat and human PEPT1 and PEPT2 expressing CHO cell lines were prepared as described in PCT Application WO01/20331. Gabapentin-containing dipeptides were evaluated for interaction with the peptide transporters using a radiolabeled substrate uptake assay in a competitive inhibition format, as described in PCT Application WO01/20331. Transport-induced currents were also measured in Xenopus oocytes transfected with rat and human PEPT1 and PEPT2.\n(§2) RNA preparation: Rat and human PEPT1 and PEPT2 transporter cDNAs were subdcloned into a modified pGEM plasmid that contains 5′ and 3′ untranslated sequences from the Xenopus β-actin gene. These sequences increase RNA stability and protein expression. Plasmid cDNA was linearized and used as template for in vitro transcription (Epicentre Technologies transcription kit, 4:1 methylated:non-methylated GTP).\n(§3) Xenopus oocyte isolation. Xenopus laevis frogs were anesthetized by immersion in Tricaine ([…] in deionized water) for 15 min. […]\n(§4) Electrophysiology measurements. Transport currents were measured 2-14 days after injection, using a standard two-electrode electrophysiology set-up (Geneclamp 500 amplifier, Digidata 1320/PCLAMP software and ADInstruments hardware and software were used for signal acquisition)."}, "[7]": {"system": "PEPT1", "conditions": "tested at 1 mM on oocytes expressing PEPT1; normalised to 1 mM glycyl-sarcosine", "procedure": "as §1, §2, §3, §4"}},
  "note": "Like-named read-outs stand apart in the source and are kept apart here.",
  "data": [
    {"molecule": "N[C@@H](Cc1ccc(C(F)(F)F)cc1)C(=O)NCC1(CC(=O)O)CCCCC1", "note": "[1aa, L-4-Trifluoromethylphenylalanine-Gabapentin]", "values": [
      {"measurement": "Cmax PD (Cmax of prodrug in plasma)", "setting": "[1]", "value": 30000, "unit": "ng/mL"},
      {"measurement": "% of prodrug surviving intact", "setting": "[2]", "value": 97, "unit": "%"}
    ]},
    {"molecule": "N[C@@H](Cc1ccccc1F)C(=O)NCC1(CC(=O)O)CCCCC1", "note": "[1ab, L-2-Fluorophenylalanine-Gabapentin]", "values": [
      {"measurement": "fraction absorbed intact following oral administration", "setting": "[3]", "value": "about 60%"}
    ]},
    {"molecule": "N[C@@H](Cc1ccc(Br)cc1)C(=O)NCC1(CC(=O)O)CCCCC1", "note": "[1ah, L-4-Bromophenylalanine-Gabapentin]", "values": [
      {"measurement": "AUC G (AUC of gabapentin)", "setting": "[4]; oral", "value": "29100 ± 3500", "unit": "ng·h/mL"},
      {"measurement": "AUC PD (AUC of prodrug)", "setting": "[4]; oral", "value": "18900 ± 6500", "unit": "ng·h/mL"},
      {"measurement": "Cmax G (Cmax of gabapentin)", "setting": "[4]; oral", "value": "3800 ± 1100", "unit": "ng/mL"},
      {"measurement": "Cmax PD (Cmax of prodrug)", "setting": "[4]; oral", "value": "14900 ± 5300", "unit": "ng/mL"},
      {"measurement": "F (oral bioavailability as gabapentin)", "setting": "[4]", "value": "49.1±6.8", "unit": "%"},
      {"measurement": "Cmax PD (Cmax of prodrug in plasma)", "setting": "[1]", "value": 103000, "unit": "ng/mL"},
      {"measurement": "Cmax of gabapentin in plasma", "setting": "[1]", "value": 6100, "unit": "ng/mL"},
      {"measurement": "% of prodrug surviving intact", "setting": "[2]", "value": 79, "unit": "%"}
    ]},
    {"molecule": "N#Cc1cccc(C[C@H](N)C(=O)NCC2(CC(=O)O)CCCCC2)c1", "note": "[1al, L-3-Cyanophenylalanine-Gabapentin]", "values": [
      {"measurement": "Cmax PD (Cmax of prodrug in plasma)", "setting": "[1]", "value": 600, "unit": "ng/mL"},
      {"measurement": "% of prodrug surviving intact", "setting": "[2]", "value": 46, "unit": "%"}
    ]},
    {"molecule": "N#Cc1ccc(C[C@H](N)C(=O)NCC2(CC(=O)O)CCCCC2)cc1", "note": "[1am, L-4-Cyanophenylalanine-Gabapentin]", "values": [
      {"measurement": "Cmax PD (Cmax of prodrug in plasma)", "setting": "[1]", "value": 22400, "unit": "ng/mL"},
      {"measurement": "% of prodrug surviving intact", "setting": "[2]", "value": 90, "unit": "%"}
    ]},
    {"molecule": "N[C@@H](Cc1cc(F)cc(F)c1)C(=O)NCC1(CC(=O)O)CCCCC1", "note": "[1ao, L-3,5-Difluorophenylalanine-Gabapentin]", "values": [
      {"measurement": "Cmax PD (Cmax of prodrug in plasma)", "setting": "[1]", "value": 2900, "unit": "ng/mL"},
      {"measurement": "% of prodrug surviving intact", "setting": "[2]", "value": 48, "unit": "%"}
    ]},
    {"molecule": "NC(Cc1ccc(F)cc1F)C(=O)NCC1(CC(=O)O)CCCCC1", "note": "[1ap, D, L-2,4-Difluorophenylalanine-Gabapentin]", "values": [
      {"measurement": "Cmax PD (Cmax of prodrug in plasma)", "setting": "[1]", "value": 278000, "unit": "ng/mL"},
      {"measurement": "% of prodrug surviving intact", "setting": "[2]", "value": 90, "unit": "%"}
    ]},
    {"molecule": "N[C@@H](CO)C(=O)NCC1(CC(=O)O)CCCCC1", "note": "[1ax, L-Serine-Gabapentin]", "values": [
      {"measurement": "increase in gabapentin exposure (as measured by AUC) on a 7.5-fold increase in dose", "setting": "[5]", "value": 5.1, "unit": "fold"},
      {"measurement": "fraction absorbed intact following oral administration", "setting": "[3]", "value": "15-20%"}
    ]},
    {"molecule": "N[C@@H](Cc1cccc2ccccc12)C(=O)NCC1(CC(=O)O)CCCCC1", "note": "[1l, L-1-Naphthylalanine-Gabapentin]", "values": [
      {"measurement": "Cmax PD (Cmax of prodrug in plasma)", "setting": "[1]", "value": 500, "unit": "ng/mL"},
      {"measurement": "% of prodrug surviving intact", "setting": "[2]", "value": 29, "unit": "%"}
    ]},
    {"molecule": "NCC1(CC(=O)O)CCCCC1", "note": "[compound 2, gabapentin]", "values": [
      {"measurement": "Cmax of gabapentin in plasma", "setting": "[1]", "value": 10300, "unit": "ng/mL"},
      {"measurement": "F (oral bioavailability as gabapentin)", "setting": "[5]; 10 mg-eq/kg", "value": "53.9±17.3", "unit": "%"},
      {"measurement": "F (oral bioavailability as gabapentin)", "setting": "[5]; 75 mg-eq/kg", "value": "22.9±1.1", "unit": "%"},
      {"measurement": "AUC G (AUC of gabapentin)", "setting": "[5]; 10 mg-eq/kg", "value": "32100 ± 10400", "unit": "ng·h/mL"},
      {"measurement": "Cmax G (Cmax of gabapentin)", "setting": "[5]; 10 mg-eq/kg", "value": "3700 ± 1600", "unit": "ng/mL"},
      {"measurement": "AUC G (AUC of gabapentin)", "setting": "[5]; 75 mg-eq/kg", "value": "102000 ± 4900", "unit": "ng·h/mL"},
      {"measurement": "Cmax G (Cmax of gabapentin)", "setting": "[5]; 75 mg-eq/kg", "value": "10800 ± 1300", "unit": "ng/mL"},
      {"measurement": "increase in gabapentin exposure (as measured by AUC) on a 7.5-fold increase in dose", "setting": "[5]", "value": 3.2, "unit": "fold"}
    ]},
    {"molecule": "CC(C)C[C@H](CNC(=O)[C@@H](N)Cc1ccc(Br)cc1)CC(=O)O", "note": "[compound 5, L-4-Bromophenylalanine-Pregabalin]", "values": [
      {"measurement": "PEPT-specific currents above background", "setting": "[6]", "value": "at least 5 % of Imax for Gly-Sar"},
      {"measurement": "PEPT-specific currents above background", "setting": "[7]", "value": "at least 5 % of Imax for Gly-Sar"}
    ]},
    {"molecule": "L-Tyrosine-(O-2-Bromobenzyloxycarbonyl)-Gabapentin [4d]", "values": [
      {"measurement": "% of prodrug surviving intact", "setting": "[2]", "value": 3, "unit": "%"}
    ]}
  ]
}
